# Values quoted from earlier work in patent US20160081975A1, “SOFT GEL COMPOSITIONS AND PRE-GEL CONCENTRATES” (VIRUN, INC., priority 2014, published 2016).
# Details: reported value
row,Substance,HLB value
1,sucrose dipalmitate,7.4
2,sucrose distearate,3
3,sucrose monopalmitate,> 10
